A short description of data set [1]: Toxic deaths in the X-5563 (multiple myeloma) tumor test. Format: in vivo, C3H mice. As to conditions: I.P. daily for 10 days. The method, then:
The following protocol was employed. The tumor was removed from passage animals and minced into 1 to 3 mm square fragments using sterile techniques. Tumor pieces were checked for sterility using both Antibiotic Medium 1 and Brain Heart Infusion (Difco; Detroit, MI). Recipient mice were shaved and tumor pieces were implanted subcutaneously in the axillary region by trocar. Drug therapy on the appropriate schedule was initiated on the day after tumor implant. The compound was dissolved in saline for all experiments. All animals were weighed at the beginning and end of drug treatment. Food and water were provided ad libitum. Each test group contains 5 animals. On days 10 to 12, two dimensional measurements (width and length) of all tumors were taken using vernier calipers. Tumor weights were calculated from these measurements using the following formula: […]
(§1) For all data, the tumor weight was rounded to the nearest tenth of a gram for analysis. No group is included in the analysis for therapeutic activity in which deaths attributable to drug toxicity exceeded 30 percent of the treated group.
(§2) In Table 2 which follows, column 1 gives the name of the compound; column 2, the dose level; column 3, the percent inhibition of the tumor; and column 4, the toxic deaths. Drug and control doasges were administered I.P. daily for 10 days.

Data set [2] deals with X-5563 (multiple myeloma). Nature of the data set: Activity against X-5563 (multiple myeloma) tumor maintained in C3H mice. Format: in vivo. The note with it: I.P. daily for 10 days, tumors measured days 10 to 12. The method, then: The following protocol was employed. The tumor was removed from passage animals and minced into 1 to 3 mm square fragments using sterile techniques. Tumor pieces were checked for sterility using both Antibiotic Medium 1 and Brain Heart Infusion (Difco; Detroit, MI). Recipient mice were shaved and tumor pieces were implanted subcutaneously in the axillary region by trocar. Drug therapy on the appropriate schedule was initiated on the day after tumor implant. The compound was dissolved in saline for all experiments. All animals were weighed at the beginning and end of drug treatment. Food and water were provided ad libitum. Each test group contains 5 animals. On days 10 to 12, two dimensional measurements (width and length) of all tumors were taken using vernier calipers. Tumor weights were calculated from these measurements using the following formula:
Tumor Weight (mg)=Tumor Length (mm) X Tumor Width (mm)^2 /2
as §1, §2

For data set [3], the system named is CCRF-CEM cell line. As to the kind of experiment: Inhibition of growth of human leukemic cells (CCRF-CEM Cytotoxicity Screen). Format: cell-based. The note with it: in vitro, read-out: IC50 (concentration giving 50% growth inhibition).

This is an account of results in patent publication US4647685A, “2-alkoxy-1-((2-trialkylaminoethoxy)phosphinyloxy)-alkenes and alkynes, hydroxy inner salts” (Eli Lilly and Company, priority 1985, dated 1987).

Structures are written as SMILES. Structures can show the parent of a compound that is named as a salt.

As to `CCCCCCCC/C=C\CCCCCCCC(COP(=O)([O-])OCC[N+](C)(C)C)OCC` (racemic) [(Z)-(±)-2-ethoxy-1-[(2-trimethylaminoethoxy)phosphinyloxy]-10-nonadecene, hydroxy inner salt], the “Toxic Deaths” value in data set [1] (50 mg/kg) is 1/10. In data set [2] (50 mg/kg), the “Percent Inhibition of Tumor” value is listed as 47%. Besides, the IC50 in data set [3] came to 1.6 µg/mL.

In the case of `CCCCC/C=C\C/C=C\CCCCCCCC(COP(=O)([O-])OCC[N+](C)(C)C)OCC` (racemic) [(Z,Z)-(±)-2-Ethoxy-1-[(2-trimethylaminoethoxy)phosphinyloxy]-10,13 nonadecadiene, hydroxy inner salt], the “Toxic Deaths” value in data set [1] (70 mg/kg) was 2/10. For the same compound, the “Percent Inhibition of Tumor” value in data set [2] (70 mg/kg) was determined as 31%. For the same compound, the IC50 in data set [3] came to 6 µg/mL.

`CCCCC/C=C\C/C=C\CCCCCCCC(COP(=O)([O-])OCC[N+](C)(C)C)OC` (racemic) [(Z,Z)-(±)-2-Methoxy-1-[(2-trimethylaminoethoxy)phosphinyloxy]-10,13-nonadecadiene, hydroxy inner salt]: the IC50 in data set [3] worked out at 4.2 µg/mL.
